Measured values: PubChem BioAssay (NCI)
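These data come from cells grown in 96-well plates and exposed to compound for 48 hours at five concentrations. TGI is the concentration that stops growth completely.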

Key:
Assay in all cases: NCI tumour cell line growth inhibition, 48 h
OVCAR-3 ovarian = test system: OVCAR-3 ovarian
SNB-75 CNS = test system: SNB-75 CNS
HOP-62 NSCLC = test system: HOP-62 NSCLC
HS 578T breast = test system: HS 578T breast
MOLT-4 leukemia = test system: MOLT-4 leukemia
ACHN renal = test system: ACHN renal
U251 CNS = test system: U251 CNS
A549 NSCLC = test system: A549 NSCLC
HL-60(TB) leukemia = test system: HL-60(TB) leukemia
PC-3 prostate = test system: PC-3 prostate
BT-549 breast = test system: BT-549 breast
UO-31 renal = test system: UO-31 renal
DU-145 prostate = test system: DU-145 prostate
K-562 leukemia = test system: K-562 leukemia
OVCAR-5 ovarian = test system: OVCAR-5 ovarian
OVCAR-8 ovarian = test system: OVCAR-8 ovarian
CAKI-1 renal = test system: CAKI-1 renal
SR leukemia = test system: SR leukemia
A498 renal = test system: A498 renal
HOP-92 NSCLC = test system: HOP-92 NSCLC
HCC-2998 colon = test system: HCC-2998 colon
UACC-257 melanoma = test system: UACC-257 melanoma
TK-10 renal = test system: TK-10 renal
UACC-62 melanoma = test system: UACC-62 melanoma
MALME-3M melanoma = test system: MALME-3M melanoma
RXF 393 renal = test system: RXF 393 renal
OVCAR-4 ovarian = test system: OVCAR-4 ovarian
SF-268 CNS = test system: SF-268 CNS
HT29 colon = test system: HT29 colon
KM12 colon = test system: KM12 colon
MCF7 breast = test system: MCF7 breast
SF-539 CNS = test system: SF-539 CNS
SF-295 CNS = test system: SF-295 CNS
HCT-116 colon = test system: HCT-116 colon
T-47D breast = test system: T-47D breast
NCI-H460 lung = test system: NCI-H460 lung
SW-620 colon = test system: SW-620 colon
786-0 renal = test system: 786-0 renal
MDA-MB-231 breast = test system: MDA-MB-231 breast
NCI-H23 lung = test system: NCI-H23 lung
HCT-15 colon = test system: HCT-15 colon
SN12C renal = test system: SN12C renal
MDA-MB-435 = test system: MDA-MB-435
CCRF-CEM leukemia = test system: CCRF-CEM leukemia
IGROV1 ovarian = test system: IGROV1 ovarian
SK-MEL-2 melanoma = test system: SK-MEL-2 melanoma
LOX IMVI melanoma = test system: LOX IMVI melanoma
MDA-N = test system: MDA-N
SK-MEL-28 melanoma = test system: SK-MEL-28 melanoma
NCI/ADR-RES ovarian = test system: NCI/ADR-RES ovarian
SK-MEL-5 melanoma = test system: SK-MEL-5 melanoma
EKVX NSCLC = test system: EKVX NSCLC
M14 melanoma = test system: M14 melanoma
RPMI-8226 leukemia = test system: RPMI-8226 leukemia
SNB-19 CNS = test system: SNB-19 CNS
COLO 205 colon = test system: COLO 205 colon
NCI-H226 lung = test system: NCI-H226 lung
NCI-H522 lung = test system: NCI-H522 lung
SK-OV-3 ovarian = test system: SK-OV-3 ovarian

In the case of `COc1ccc(SCc2cc(OC)c(OC)c(OC)c2)cc1OC`, the TGI (OVCAR-3 ovarian) is reported as greater than 100 µM, the TGI (SNB-75 CNS) is reported as greater than 70.5 µM and the TGI (HOP-62 NSCLC) is reported as greater than 100 µM. The TGI (HS 578T breast) was greater than 100 µM, the TGI (MOLT-4 leukemia) was greater than 100 µM and the TGI (ACHN renal) was greater than 100 µM. It also gave a TGI (U251 CNS) greater than 100 µM, a TGI (A549 NSCLC) greater than 100 µM and a TGI (HL-60(TB) leukemia) greater than 100 µM. For the same compound, the TGI (PC-3 prostate) was greater than 100 µM, the TGI (BT-549 breast) was greater than 100 µM and the TGI (UO-31 renal) was greater than 100 µM. It also gave a TGI (DU-145 prostate) greater than 100 µM, a TGI (K-562 leukemia) greater than 100 µM and a TGI (OVCAR-5 ovarian) greater than 100 µM. The TGI (OVCAR-8 ovarian) was greater than 100 µM, the TGI (CAKI-1 renal) was greater than 100 µM and the TGI (SR leukemia) was greater than 100 µM. It also gave a TGI (A498 renal) greater than 86.4 µM, a TGI (HOP-92 NSCLC) of 83.3 µM and a TGI (HCC-2998 colon) greater than 100 µM. The TGI (UACC-257 melanoma) was greater than 100 µM, the TGI (TK-10 renal) was greater than 100 µM and the TGI (UACC-62 melanoma) was greater than 100 µM. The TGI (MALME-3M melanoma) was greater than 100 µM, the TGI (RXF 393 renal) was greater than 100 µM and the TGI (OVCAR-4 ovarian) was greater than 100 µM. For the same compound, the TGI (SF-268 CNS) was greater than 100 µM, the TGI (HT29 colon) was greater than 100 µM and the TGI (KM12 colon) was greater than 100 µM. It also gave a TGI (MCF7 breast) greater than 100 µM, a TGI (SF-539 CNS) greater than 100 µM and a TGI (SF-295 CNS) greater than 100 µM. It also gave a TGI (HCT-116 colon) greater than 100 µM, a TGI (T-47D breast) greater than 31.6 µM and a TGI (NCI-H460 lung) greater than 100 µM. The TGI (SW-620 colon) was greater than 100 µM, the TGI (786-0 renal) was greater than 100 µM and the TGI (MDA-MB-231 breast) was greater than 100 µM. For the same compound, the TGI (NCI-H23 lung) was greater than 100 µM, the TGI (HCT-15 colon) was greater than 100 µM and the TGI (SN12C renal) was greater than 100 µM. For the same compound, the TGI (MDA-MB-435) was 63.1 µM, the TGI (CCRF-CEM leukemia) was greater than 100 µM and the TGI (IGROV1 ovarian) was greater than 100 µM. The TGI (SK-MEL-2 melanoma) was greater than 69.1 µM, the TGI (LOX IMVI melanoma) was greater than 100 µM and the TGI (MDA-N) was greater than 100 µM. The TGI (SK-MEL-28 melanoma) was greater than 100 µM, the TGI (NCI/ADR-RES ovarian) was greater than 100 µM and the TGI (SK-MEL-5 melanoma) was 34.7 µM. For the same compound, the TGI (EKVX NSCLC) was greater than 100 µM, the TGI (M14 melanoma) was greater than 100 µM and the TGI (RPMI-8226 leukemia) was greater than 100 µM. It also gave a TGI (SNB-19 CNS) greater than 100 µM, a TGI (COLO 205 colon) greater than 100 µM and a TGI (NCI-H226 lung) greater than 100 µM. For the same compound, the TGI (NCI-H522 lung) was greater than 100 µM and the TGI (SK-OV-3 ovarian) was greater than 90.1 µM.
Compound `COP(=O)(OC)/C(=C/c1c[nH]c2ccccc12)C(=O)O` has a TGI (OVCAR-3 ovarian) greater than 100 µM, a TGI (SNB-75 CNS) greater than 100 µM and a TGI (HOP-62 NSCLC) greater than 100 µM. It also gave a TGI (HS 578T breast) greater than 100 µM, a TGI (MOLT-4 leukemia) greater than 100 µM and a TGI (ACHN renal) greater than 100 µM. It also gave a TGI (U251 CNS) greater than 100 µM, a TGI (A549 NSCLC) greater than 100 µM and a TGI (HL-60(TB) leukemia) greater than 100 µM. For the same compound, the TGI (PC-3 prostate) was greater than 100 µM, the TGI (BT-549 breast) was greater than 100 µM and the TGI (UO-31 renal) was greater than 100 µM. The TGI (DU-145 prostate) was greater than 100 µM, the TGI (K-562 leukemia) was greater than 100 µM and the TGI (OVCAR-5 ovarian) was greater than 100 µM. The TGI (OVCAR-8 ovarian) was greater than 100 µM, the TGI (CAKI-1 renal) was greater than 100 µM and the TGI (SR leukemia) was greater than 100 µM. The TGI (A498 renal) was greater than 100 µM, the TGI (HOP-92 NSCLC) was greater than 100 µM and the TGI (HCC-2998 colon) was greater than 100 µM. For the same compound, the TGI (TK-10 renal) was greater than 100 µM, the TGI (UACC-62 melanoma) was greater than 100 µM and the TGI (MALME-3M melanoma) was greater than 100 µM. The TGI (RXF 393 renal) was greater than 100 µM, the TGI (OVCAR-4 ovarian) was greater than 100 µM and the TGI (HT29 colon) was greater than 100 µM. For the same compound, the TGI (KM12 colon) was greater than 100 µM, the TGI (MCF7 breast) was greater than 100 µM and the TGI (SF-539 CNS) was greater than 100 µM. For the same compound, the TGI (SF-295 CNS) was greater than 100 µM, the TGI (HCT-116 colon) was greater than 100 µM and the TGI (T-47D breast) was greater than 100 µM. For the same compound, the TGI (NCI-H460 lung) was greater than 100 µM, the TGI (SW-620 colon) was greater than 100 µM and the TGI (786-0 renal) was greater than 100 µM. For the same compound, the TGI (MDA-MB-231 breast) was greater than 100 µM, the TGI (NCI-H23 lung) was greater than 100 µM and the TGI (HCT-15 colon) was greater than 100 µM. For the same compound, the TGI (SN12C renal) was greater than 100 µM, the TGI (MDA-MB-435) was greater than 100 µM and the TGI (CCRF-CEM leukemia) was greater than 100 µM. For the same compound, the TGI (IGROV1 ovarian) was greater than 100 µM, the TGI (SK-MEL-2 melanoma) was greater than 100 µM and the TGI (LOX IMVI melanoma) was greater than 100 µM. It also gave a TGI (MDA-N) greater than 100 µM, a TGI (SK-MEL-28 melanoma) greater than 100 µM and a TGI (NCI/ADR-RES ovarian) greater than 100 µM. For the same compound, the TGI (SK-MEL-5 melanoma) was greater than 100 µM, the TGI (EKVX NSCLC) was greater than 100 µM and the TGI (M14 melanoma) was greater than 100 µM. The TGI (RPMI-8226 leukemia) was greater than 100 µM, the TGI (SNB-19 CNS) was greater than 100 µM and the TGI (COLO 205 colon) was greater than 100 µM. It also gave a TGI (NCI-H226 lung) greater than 100 µM, a TGI (NCI-H522 lung) greater than 100 µM and a TGI (SK-OV-3 ovarian) greater than 100 µM.
`CC12CCC(C(Br)(Br)C1=O)C2(C)C` (stereo not given) showed a TGI (OVCAR-3 ovarian) of 4.1 µM, a TGI (SNB-75 CNS) of 11.6 µM and a TGI (HOP-62 NSCLC) of 13.6 µM. The TGI (HS 578T breast) was 9.29 µM, the TGI (MOLT-4 leukemia) was 2.53 µM and the TGI (ACHN renal) was 7.69 µM. For the same compound, the TGI (U251 CNS) was 0.224 µM, the TGI (A549 NSCLC) was greater than 100 µM and the TGI (HL-60(TB) leukemia) was 0.149 µM. For the same compound, the TGI (PC-3 prostate) was 7.98 µM, the TGI (BT-549 breast) was 2.68 µM and the TGI (UO-31 renal) was 3.25 µM. It also gave a TGI (DU-145 prostate) of 37.1 µM, a TGI (K-562 leukemia) of 13.1 µM and a TGI (OVCAR-5 ovarian) of 6.57 µM. It also gave a TGI (OVCAR-8 ovarian) of 11.3 µM, a TGI (CAKI-1 renal) of 14.9 µM and a TGI (SR leukemia) of 12.9 µM. It also gave a TGI (A498 renal) of 17.5 µM, a TGI (HOP-92 NSCLC) of 2.81 µM and a TGI (HCC-2998 colon) of 4.91 µM. It also gave a TGI (UACC-257 melanoma) of 16.7 µM, a TGI (TK-10 renal) of 11 µM and a TGI (UACC-62 melanoma) of 10.1 µM. It also gave a TGI (MALME-3M melanoma) of 1 µM, a TGI (RXF 393 renal) of 2.54 µM and a TGI (OVCAR-4 ovarian) of 5.58 µM. It also gave a TGI (SF-268 CNS) of 1.22 µM, a TGI (HT29 colon) of 3.19 µM and a TGI (KM12 colon) of 16.1 µM. The TGI (MCF7 breast) was greater than 36.8 µM, the TGI (SF-539 CNS) was 16.9 µM and the TGI (SF-295 CNS) was 22.4 µM. The TGI (HCT-116 colon) was 3.71 µM, the TGI (T-47D breast) was 1.02 µM and the TGI (NCI-H460 lung) was 27.2 µM. For the same compound, the TGI (SW-620 colon) was 0.71 µM, the TGI (786-0 renal) was 3.84 µM and the TGI (MDA-MB-231 breast) was 1.51 µM. For the same compound, the TGI (NCI-H23 lung) was 2.21 µM, the TGI (HCT-15 colon) was 3.57 µM and the TGI (SN12C renal) was 5.84 µM. It also gave a TGI (MDA-MB-435) of 2.24 µM, a TGI (CCRF-CEM leukemia) of 0.196 µM and a TGI (IGROV1 ovarian) of 0.516 µM. It also gave a TGI (SK-MEL-2 melanoma) of 0.98 µM, a TGI (LOX IMVI melanoma) of 11.3 µM and a TGI (MDA-N) of 2.65 µM. The TGI (SK-MEL-28 melanoma) was 6.46 µM, the TGI (NCI/ADR-RES ovarian) was 1.06 µM and the TGI (SK-MEL-5 melanoma) was 4.74 µM. For the same compound, the TGI (EKVX NSCLC) was 2.81 µM, the TGI (M14 melanoma) was 3.98 µM and the TGI (RPMI-8226 leukemia) was 1.78 µM. It also gave a TGI (SNB-19 CNS) greater than 57.6 µM, a TGI (COLO 205 colon) of 14.7 µM and a TGI (NCI-H226 lung) of 8.64 µM. It also gave a TGI (NCI-H522 lung) of 0.155 µM and a TGI (SK-OV-3 ovarian) greater than 31.6 µM.
